These are literature values, as cited in PMC12444507 (ACS Omega, 2025).

This series deals with nirmatrelvir-resistant E166 V-carrying SARS-CoV-2^E166V. The note with it: cited from earlier work.

`CC(C)(C)[C@H](NC(=O)C(F)(F)F)C(=O)N1C[C@H]2[C@@H]([C@H]1C(=O)N[C@@H](C[C@@H]1CCNC1=O)C(=O)c1nc3cc(F)ccc3s1)C2(C)C` [TKB272 (8)]: the “antiviral activity against SARS-CoV-2^E166V” value is listed as “substantial antiviral activity”.
